“And” between values parts separate entries of the source, which are not always exact repeats. Equal values may be shown once.
Key:
[1] = test system: SAN cells; assay: Spontaneous APs / pacing rate of isolated SAN cells from WT mice (patch clamp); type: cell-based, mouse
Description: (§1) WT and CASQ2 D307H KI mice were anesthetized with isofluorane and sacrificed by cervical dislocation. The heart was rapidly removed and transferred into Tyrode solution containing heparin. […] The area was cleaned, cut into small strips and washed into a Low Calcium Solution, containing (in mM): 140 NaCl, 5.4 KCl, 0.5 MgCl2, 1.2 KH2PO4, 5 HEPES-NaOH, 50 taurine, 5.5 glucose (pH 6.9). The osmolarity was adjusted if needed to 315 mOsm.
The same solution, supplemented with 1 mg/ml albumin, 200 μM CaCl2, collagenase Type I (Worthington) or liberase TH (Roche), protease (Sigma) and elastase (Sigma) was used for enzymatic digestion as previously described [See, Mesirca, P., et al. Nat Commun 5, 4664 (2014)]. In this step, the tissue was gently resuspended with a polished Pasteur pipette in this solution for 9-13 minutes at 37° C. SAN samples were then washed three times in a modified “Kraftbrühe” solution, containing (in mM): 70 glutamic acid, 80 KOH, 20 KCl, 10 γ-Hydroxybutyric acid sodium salt, 10 KH2PO4, 10 HEPES-KOH, 10 taurine, 1 mg/ml albumin, 0.1 EGTA-KOH (pH 7.2). The same solution was used to re-suspend the single cells with a pipet by vigorous up and down, between 3 to 5 minutes at 37° C. Cells were then gradually exposed to increasing concentrations of calcium, following a “Ca^2+ readaptation” protocol [Mesirca et al., 2014, supra]. Experiments were performed the same day at 33° C.
(§2) In all experiments, the coverslips were perfused at 33° C. with an external solution containing (in mM): 140 NaCl, 4 KCl, 11 Glucose, 1.2 MgCl2, 1.8 CaCl2, 5.5 HEPES titrated to pH 7.4 with NaOH and adjusted at 320 mOsm with sucrose.
The spontaneous automaticity of isolated SAN cells was recorded under perforated-patch conditions by adding 30 μM β-escin49 to the intracellular solution containing (in mM): 130 KCl, 10 NaCl, 10 HEPES, 0.2 EGTA-KOH, 2 MgATP, 6.6 Phosphocreatine, 0.05 cAMP and 1 μM free Ca^2+ (pH 7.2). To record SK4 K+ current, a voltage ramp protocol was applied. SAN and hiPS-CMs were held at −40 mV and −20 mV, respectively to substantially inactivate voltage-gated Na^+ and Ca^2+ currents. Cells were stepped from −90 mV to +60 mV for 150 ms. Then, a cocktail (solution 1) containing (in mM) 0.3 cadmium, 0.025 ZD-7288 and 0.01 E-4031 was applied extracellularly to inhibit residual L-type and T-type voltage-gated Ca2+ currents, If and the IKr currents, respectively. […] For voltage-clamp recording of SAN cells, the intracellular solution was the same to that described above for recording spontaneous automaticity.
The spontaneous electric activity of the cell was recorded in the current clamp configuration of the patch clamp technique before (black trace) and during (violet trace) exposure to 2 μM clotrimazole.
FIG. 5E (Left) presents representative traces of spontaneous APs recorded in single SAN cell from WT mice.

[2] = test system: WT mice; assay: In vivo telemetric ECG recording in WT (normal) mice; design: species or system mouse; conditions: 20 mg/kg IP
From the text: (§3) Telemetric ambulatory long-term ECG recordings, analogous to Holter monitoring in humans, were obtained with implantable transmitters. […] An implantable 3.5 grams wireless radiofrequency transmitter (DSI MM USA, device weight 3.8 grams) was aseptically inserted into a subcutaneous tissue pocket in the back as described in Katz, G., et al. Heart Rhythm 7, 1676-1682 (2010) and Kurtzwald-Josefson, E., et al. Heart Rhythm 11, 1471-1479 (2014)]. Animals were allowed to recover after surgery for at least 24 hours before any experiments. Baseline electrocardiograms (ECG) were obtained 15 minutes after IP injection of the appropriate vehicle (peanut oil or peanut oil supplemented with ethanol 1%). […] Telemetered ECG tracings were obtained in conscious mice at rest for one minute and during peak exercise (i.e. the first minute of recovery). In the treadmill exercise, mice were forced to exercise on a rodent treadmill; gradually increasing the speed up to a maximum of 15 m/minute. Ventricular tachycardia (VT) was defined as four or more consecutive ventricular beats. If this phenotype was consecutively observed for more than 15 seconds, it was defined as “sustained” ventricular tachycardia (SVT). Shorter VTs were characterized as “non-sustained” (NSVT). All other ventricular arrhythmias, such as premature beats, ventricular bigeminy, couplets and triplets were all defined as ventricular premature contractions (VPCs).
For this, a heart telemetry device was implanted in norma mice for continuous ECG recording at rest and during treadmill exercise. For each session, continuous ECG recording was performed with the same animals receiving first intraperitoneal (IP) injection of vehicle (peanut oil) and then 20 mg/kg clotrimazole.
(§4) A heart telemetry device was implanted in WT, CASQ2-D307H KI and CASQ2 KO mice for continuous ECG recording at rest and during treadmill exercise. For each session, continuous ECG recording was performed with the same animals receiving first intraperitoneal (IP) injection of vehicle (peanut oil) and then the SK4 channel blocker.

[3] = test system: CASQ2-D307H KI mice; assay: In vivo telemetric ECG recording in CASQ2-D307H KI mice; design: species or system mouse; conditions: 20 mg/kg IP; for number of mice, most severe ECG form: NSVT / number of mice, most severe ECG form: Normal (sinusal rhythm) / number of mice, most severe ECG form: SVT / number of mice, most severe ECG form: VPC: n=5 Clotrimazole, n=12 TRAM-34
From the text: as §3, §4
(§5) The types of arrhythmic features were classified following their seriousness: sinusal rhythm (normal), ventricular premature contractions (VPC), non-sustained ventricular tachycardia (NSVT) and sustained ventricular tachycardia (SVT). For each mouse was considered the most severe form of arrhythmia recorded under ECG.

[4] = test system: CASQ2 KO mice; assay: In vivo telemetric ECG recording in CASQ2 KO mice; design: species or system mouse; conditions: 20 mg/kg IP; for number of mice, most severe ECG form: NSVT / number of mice, most severe ECG form: Normal (sinusal rhythm) / number of mice, most severe ECG form: SVT / number of mice, most severe ECG form: VPC: n=6
From the text: as §3, §4, §5

[5] = molecular target: T1, SK4 current (Homo sapiens, UniProt O15554); conditions: 2 μM clotrimazole added to solution 1; voltage ramp −90 to +40 mV; cited from earlier work
T1 construct: electrophysiological characterization of the SK4 current in a single cardiac hESC-CM; endogenous in cells; host or cells: hESC-CMs (human embryonic stem cell-derived cardiomyocytes)
T1 sequence (O15554 whole entry): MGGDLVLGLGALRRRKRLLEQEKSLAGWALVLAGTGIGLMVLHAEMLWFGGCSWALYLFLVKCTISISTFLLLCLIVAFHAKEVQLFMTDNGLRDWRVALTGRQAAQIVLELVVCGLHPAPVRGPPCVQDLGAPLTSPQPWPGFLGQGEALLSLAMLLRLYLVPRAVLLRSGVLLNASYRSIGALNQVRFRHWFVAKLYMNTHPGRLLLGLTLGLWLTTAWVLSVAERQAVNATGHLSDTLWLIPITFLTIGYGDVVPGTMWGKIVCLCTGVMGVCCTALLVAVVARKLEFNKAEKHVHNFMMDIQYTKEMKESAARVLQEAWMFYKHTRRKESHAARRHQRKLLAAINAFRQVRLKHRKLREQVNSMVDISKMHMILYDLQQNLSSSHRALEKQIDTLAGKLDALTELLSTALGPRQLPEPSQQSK

[6] = test system: hESC-CMs; conditions: 2 μM clotrimazole, current clamp; cited from earlier work
[7] = test system: SAN cells from CASQ2-D307H KI mice; assay: Spontaneous APs and DADs of isolated SAN cells from CASQ2 D307H KI mice; type: cell-based, mouse; conditions: 50 nM isoproterenol, after 1-2 minutes
Description: as §1
The same solution, supplemented with 1 mg/ml albumin, 200 μM CaCl2, collagenase Type I (Worthington) or liberase TH (Roche), protease (Sigma) and elastase (Sigma) was used for enzymatic digestion as previously described [See, Mesirca, P., et al. Nat Commun 5, 4664 (2014)]. In this step, the tissue was gently resuspended with a polished Pasteur pipette in this solution for 9-13 minutes at 37° C. SAN samples were then washed three times in a modified “Kraftbrühe” solution, containing (in mM): 70 glutamic acid, 80 KOH, 20 KCl, 10 γ-Hydroxybutyric acid sodium salt, 10 KH2PO4, 10 HEPES-KOH, 10 taurine, 1 mg/ml albumin, 0.1 EGTA-KOH (pH 7.2). […] Cells were then gradually exposed to increasing concentrations of calcium, following a “Ca^2+ readaptation” protocol [Mesirca et al., 2014, supra]. […]
FIG. 5F (Left) presents representative traces of spontaneous APs recorded in single SAN cell from CASQ2 D307H KI mice. […]

[8] = test system: normal hiPSC-CMs; assay: Spontaneous APs in hiPS-CMs derived from normal individuals; type: cell-based, human; conditions: 3 μM isoproterenol
Description: as §2
FIG. 4E (Left) presents representative traces of spontaneous APs recorded in hiPS-CM derived from a normal individual. […] FIG. 4E (Right) are bar graphs presenting data summary of pacing rate (normalized to Ctrl; one-way ANOVA **P=0.0071, n=14), DD slope (paired t-test, ***P<0.0001, n=14) and APD50 (one-way ANOVA *P=0.0243, n=18).

[9] = test system: CPVT2 hiPSC-CMs; assay: Spontaneous APs and DADs in hiPS-CMs derived from CPVT2 (CASQ2 D307H) patients; type: cell-based, human; conditions: 3 μM isoproterenol
Description: as §2
FIG. 4F (Left) presents representative traces of spontaneous APs recorded in hiPS-CM derived from a CPVT2 (CASQ2 D307H) patients. From a regular pacing (black trace), DADs appeared when the cell was exposed to 3 μM isoproterenol (red trace, arrows). […] The suppression of cell 540 automaticity was reversible upon washout (blue trace). FIG. 4F (Right) present bar graphs showing data summary of pacing rate (n=17), on APD50 (n=17) and DADs (Normalized to Ctrl; one-way ANOVA***P=0.0001, n=15).

[10] = test system: intact SAN tissue preparations from WT mice; assay: Spontaneous calcium transients ex vivo in intact SAN tissue from WT mice (Fluo-4 AM); type: cell-based, mouse; conditions: 100 nM isoproterenol
Description: (§6) SAN tissue preparations were dissected ex vivo from WT and CASQ2-D307H KI mice as described in Torrente, A. G., et al. Proc Natl Acad Sci USA 112, 9769-9774 (2015). The dissected whole SAN tissue was pinned on a hand-made chamber and was incubated in a Tyrode solution containing 10 μM Fluo-4 AM (Thermo Fisher Scientific) and pluronic acid for 1 hour at 37° C. in the dark. The SAN tissue was washed in Tyrode at 37° C. in the dark for 10 minutes before experiments. Fluorescence of calcium transients was recorded using a photomultiplier (PTi D-104) at 35° C. and the analog signals were digitized using Digidata 1440 (Molecular Devices) and analyzed with pCLAMP 10.5 software.
(§7) To investigate the spontaneous calcium transients of the SAN, intact SAN tissue preparations dissected ex vivo from WT and CASQ2-D307H KI mice were exposed to Fluo-4 AM as previously described [Torrente, A. G., et al. Proc Natl Acad Sci USA 112, 9769-9774 (2015)].
FIG. 6A (Left) presents representative traces of spontaneous calcium transients recorded ex vivo in intact SAN tissue preparations from WT mice. […] Right: data summary of calcium transient rate (one-way-ANOVA***P=0.0003; n=12).

[11] = test system: intact SAN from CASQ2 D307H KI mice; assay: Spontaneous calcium transients ex vivo in intact SAN tissue from CASQ2-D307H KI mice (Fluo-4 AM); type: cell-based, mouse; conditions: 100 nM isoproterenol
Description: as §6, §7
FIG. 6B presents representative traces of different types of calcium transient abnormalities recorded in intact SAN from CASQ2 D307H KI mice, termed as “local Ca^2+ release” (upper left), “double humped transients” (upper right), “large-stored released Ca^2+ waves” (lower left) and “calcium alternans” (lower right).
FIG. 6C presents representative trace of spontaneous calcium transients recorded from intact SAN of CASQ2 D307H KI. The baseline rate of calcium transients (control, black trace) yielded chaotic calcium transients (red trace) following incubation of the SAN with 100 nM isoproterenol.

## Clc1ccccc1C(c1ccccc1)(c1ccccc1)n1ccnc1 [Clotrimazole]
[1]; 2 μM clotrimazole, current clamp, reversible during washout
  firing rate: strongly decreases the firing rate of the cells
[2]; WT mice at rest
  prolongation of the PR interval: 27%
[2]; WT mice at rest, vs vehicle in same animal
  reduction of resting heart rate: 16.1±6.1% and 16±6%
[2]; normal mice at rest, n=10 (vehicle 29.4±0.9)
  PR interval: 37.0 ± 3.5 ms
[2]; normal mice at rest, n=10 (vehicle 718±16)
  resting heart rate: 604±43 bpm
[2]; normal mice during treadmill exercise, n=10 (vehicle 724±18)
  sinus rate (heart rate): 605±42 bpm
[2]; normal mice following treadmill exercise, n=10 (vehicle 29.27±0.94), not significant
  PR interval: 37.44 ± 4.03 ms
[3]; KI mice at rest
  mice converted to normal sinus rhythm: 3 out of 5
[3]; KI mice, basal conditions and during treadmill exercise
  heart rate and PR interval: bradycardia and PR prolongation were noticed
[3]; KI at rest
  number of mice, most severe ECG form: NSVT: 0
  number of mice, most severe ECG form: Normal (sinusal rhythm): 3
  number of mice, most severe ECG form: SVT: 0
  number of mice, most severe ECG form: VPC: 2
[3]; KI during Exercise
  number of mice, most severe ECG form: NSVT: 2
  number of mice, most severe ECG form: Normal (sinusal rhythm): 0
  number of mice, most severe ECG form: SVT: 1
  number of mice, most severe ECG form: VPC: 2
[4]; KO mice, basal conditions and during treadmill exercise
  heart rate and PR interval: bradycardia and PR prolongation were noticed
[4]; KO at rest
  number of mice, most severe ECG form: NSVT: 0
  number of mice, most severe ECG form: Normal (sinusal rhythm): 4
  number of mice, most severe ECG form: SVT: 0
  number of mice, most severe ECG form: VPC: 2
[4]; KO during exercise
  number of mice, most severe ECG form: NSVT: 3
  number of mice, most severe ECG form: Normal (sinusal rhythm): 0
  number of mice, most severe ECG form: SVT: 1
  number of mice, most severe ECG form: VPC: 2
[5]
  clotrimazole-sensitive/SK4 current (linear voltage trace): decreased the linear voltage trace in both sides
[6]
  duration of the action potentials (APD50): did not significantly affect
  firing rate: decreased the firing rate of the cells
  membrane potential (MDP) / pacing: depolarized the membrane of the cell (MDP) until a pacing arrest

## CC(C)NCC(O)c1ccc(O)c(O)c1 (centres unmarked) [Isoproterenol]
[1]; 50 nM isoproterenol
  pacing of SAN cells: significantly increased the pacing
[7]
  DADs: led to DADs
[8]
  APD50: reduced their APD50
  firing rate: significantly increased their firing rate
[9]
  DADs: triggered DADs
  chronotropic effect: did not produce positive chronotropic effect
[10]
  rate of calcium transients: significantly increased
[11]
  Ca2+ transient abnormalities: produced various Ca^2+ transient abnormalities
